Source: ChEMBL document CHEMBL4806967, “Heterocyclic kinase inhibitors and uses thereof” (2020)
Active and inactive are the calls of the source. No cut-off for these calls is given here.

How the values were obtained:
[1] = Free drug concentration in mouse at 30 mg/kg, po measured after 2 hrs; type: ADME, organism-based; details: in vivo
[2] = Free drug concentration in mouse at 30 mg/kg, po measured after 6 hrs; type: ADME, organism-based; details: in vivo
[3] = AUCextrap in CD-1 mouse at 1 mg/kg, iv; type: ADME, organism-based; details: in vivo
[4] = AUCextrap in CD-1 mouse at 30 mg/kg, po; type: ADME, organism-based; details: in vivo
[5] = Free drug concentration in mouse at 30 mg/kg, po measured after 7 hrs; type: ADME, organism-based; details: in vivo
[6] = Free drug concentration in mouse at 30 mg/kg, po measured after 24 hrs; type: ADME, organism-based; details: in vivo
[7] = Toxicity in C57BL/6 mouse assessed as signs of intolerance by measuring change in posture upto 100 mg/kg, gavage twice daily measured after 7 days; type: organism-based; details: in vivo, po, 168 h, time 7 day
[8] = Toxicity in C57BL/6 mouse assessed as signs of intolerance by measuring change in vocalization upto 100 mg/kg, gavage twice daily measured after 7 days; type: organism-based; details: in vivo, po, 168 h, time 7 day
[9] = Toxicity in C57BL/6 mouse assessed as signs of intolerance by measuring ease of handling upto 100 mg/kg, gavage twice daily measured after 7 days; type: organism-based; details: in vivo, po, 168 h, time 7 day
[10] = Toxicity in C57BL/6 mouse assessed as signs of intolerance by measuring change in lacrimation upto 100 mg/kg, gavage twice daily measured after 7 days; type: organism-based; details: in vivo, po, 168 h, time 7 day
[11] = Toxicity in C57BL/6 mouse assessed as signs of intolerance by measuring chromo-dacryorrhea upto 100 mg/kg, gavage twice daily measured after 7 days; type: organism-based; details: in vivo, po, 168 h, time 7 day
[12] = Toxicity in C57BL/6 mouse assessed as signs of intolerance by measuring change in salivation upto 100 mg/kg, gavage twice daily measured after 7 days; type: organism-based; details: in vivo, po, 168 h, time 7 day
[13] = Toxicity in C57BL/6 mouse assessed as signs of intolerance by measuring change in intact fur/coat upto 100 mg/kg, gavage twice daily measured after 7 days; type: organism-based; details: in vivo, po, 168 h, time 7 day
[14] = Toxicity in C57BL/6 mouse assessed as signs of intolerance by measuring change in arousal upto 100 mg/kg, gavage twice daily measured after 7 days; type: organism-based; details: in vivo, po, 168 h, time 7 day
[15] = Toxicity in C57BL/6 mouse assessed as signs of intolerance by measuring change in piloerection upto 100 mg/kg, gavage twice daily measured after 7 days; type: organism-based; details: in vivo, po, 168 h, time 7 day
[16] = Toxicity in C57BL/6 mouse assessed as signs of intolerance by measuring change in normal motor movements upto 100 mg/kg, gavage twice daily measured after 7 days; type: organism-based; details: in vivo, po, 168 h, time 7 day
[17] = Toxicity in C57BL/6 mouse assessed as signs of intolerance by measuring tail pinch upto 100 mg/kg, gavage twice daily measured after 7 days; type: organism-based; details: in vivo, po, 168 h, time 7 day
[18] = Toxicity in C57BL/6 mouse assessed as signs of intolerance by measuring diarrhoea upto 100 mg/kg, gavage twice daily measured after 7 days; type: organism-based; details: in vivo, po, 168 h, time 7 day
[19] = Toxicity in C57BL/6 mouse assessed as maximum tolerated dose administered through gavage twice daily measured after 7 days; details: in vivo, po, time 7 day
[20] = tested on: MC-38; test: Anticancer activity against mouse MC38 cells subcutaneously implanted in C57BI/6N mouse assessed as tumour growth inhibition at 100 mg/kg, po once daily for 3 weeks; type: functional; details: read-out: TGI
[21] = Toxicity in C57BI/6N mouse implanted subcutaneously with MC38 cells assessed as body weight loss at 30 to 100 mg/kg, po once daily for 3 weeks; type: organism-based, MC-38; details: in vivo, dose 30-100 mg/kg
[22] = Metabolic stability in mouse liver microsomes assessed as intrinsic clearance; type: ADME, Microsome
[23] = biological target: hERG (KCNH2) (Homo sapiens, UniProt Q12809); test: Inhibition of human ERG expressed in HEK cells at 10 uM by automated electrophysiology assay; type: cell-based; details: HEK cells that express human ERG
[24] = tested on: K562; test: Anticancer activity against human K562 cells xenografted in SCID mouse assessed as increase in survival at 10 to 30 mg/kg, iv once daily for 5 days; type: functional, organism-based; details: dose 10-30 mg/kg, time 5.0 day

Chain of hERG (KCNH2) (Q12809 whole entry): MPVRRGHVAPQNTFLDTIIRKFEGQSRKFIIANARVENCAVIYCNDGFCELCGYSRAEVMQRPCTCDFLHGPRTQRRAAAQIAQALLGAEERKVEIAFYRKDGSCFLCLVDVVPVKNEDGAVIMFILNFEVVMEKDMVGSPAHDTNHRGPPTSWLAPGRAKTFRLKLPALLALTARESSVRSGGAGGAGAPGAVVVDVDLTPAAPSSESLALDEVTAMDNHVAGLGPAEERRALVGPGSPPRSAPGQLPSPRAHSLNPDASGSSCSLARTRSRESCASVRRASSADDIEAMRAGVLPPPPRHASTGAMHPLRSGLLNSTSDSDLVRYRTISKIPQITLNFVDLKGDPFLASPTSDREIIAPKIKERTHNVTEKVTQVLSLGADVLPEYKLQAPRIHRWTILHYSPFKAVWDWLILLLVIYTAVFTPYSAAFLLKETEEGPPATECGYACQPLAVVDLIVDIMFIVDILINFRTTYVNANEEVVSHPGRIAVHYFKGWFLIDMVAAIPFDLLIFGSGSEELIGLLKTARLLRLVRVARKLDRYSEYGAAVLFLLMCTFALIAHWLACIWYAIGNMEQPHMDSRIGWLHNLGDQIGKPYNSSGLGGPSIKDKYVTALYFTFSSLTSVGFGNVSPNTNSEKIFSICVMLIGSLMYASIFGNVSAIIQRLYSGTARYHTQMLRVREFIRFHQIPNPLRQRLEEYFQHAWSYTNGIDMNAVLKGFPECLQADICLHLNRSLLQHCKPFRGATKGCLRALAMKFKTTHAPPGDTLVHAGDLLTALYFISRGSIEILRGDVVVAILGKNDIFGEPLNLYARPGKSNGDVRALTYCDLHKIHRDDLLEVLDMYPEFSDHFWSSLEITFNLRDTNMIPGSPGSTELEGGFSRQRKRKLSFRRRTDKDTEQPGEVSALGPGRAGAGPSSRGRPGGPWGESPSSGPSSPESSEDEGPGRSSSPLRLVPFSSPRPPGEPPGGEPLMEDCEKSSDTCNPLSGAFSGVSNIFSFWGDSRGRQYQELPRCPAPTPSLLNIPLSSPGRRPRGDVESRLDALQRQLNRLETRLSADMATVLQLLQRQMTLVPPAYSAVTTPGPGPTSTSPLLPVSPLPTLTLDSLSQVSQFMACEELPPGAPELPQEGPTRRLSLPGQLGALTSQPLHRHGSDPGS

With `Cc1nc(Nc2ncc(C(=O)Nc3c(C)csc3Cl)s2)cc(N2CCN(C)CC2)n1` the “Drug uptake(free)” value [1] was 44 nM and the “Drug uptake(free)” value [2] was 8 nM.
In the case of `Cc1nc(Nc2ncc(C(=O)Nc3c(Cl)csc3Cl)s2)cc(N2CCN(CCO)CC2)n1`, the “Drug uptake(free)” value [1] is reported as 43 nM and the “Drug uptake(free)” value [2] is reported as 5 nM.
With `Cc1nc(Nc2ncc(C(=O)Nc3c(Cl)csc3C)s2)cc(N2CCN(CCO)CC2)n1` the “Drug uptake(free)” value [1] was 80 nM and the “Drug uptake(free)” value [2] was 4 nM.
In the case of `Cc1nc(Nc2ncc(C(=O)Nc3c(C)csc3Cl)s2)cc(N2CCN(CCO)CC2)n1`, the “%AUCextra” value [3] is reported as 5.81%, the “%AUCextra” value [4] is reported as 5.81% and the “Drug uptake(free)” value [1] is reported as 32 nM. The “Drug uptake(free)” value [5] was 3 nM, the “Drug uptake(free)” value [6] was 0.1 nM and the Activity [7] was “Non-Toxic”. The Activity [8] was “Non-Toxic”, the Activity [9] was “Non-Toxic” and the Activity [10] was “Non-Toxic”. For the same compound, the Activity [11] was “Non-Toxic”, the Activity [12] was “Non-Toxic” and the Activity [13] was “Non-Toxic”. The Activity [14] was “Non-Toxic”, the Activity [15] was “Non-Toxic” and the Activity [16] was “Non-Toxic”. For the same compound, the Activity [17] was “Non-Toxic”, the Activity [18] was “Non-Toxic” and the MTD at 168 h [19] was at most 100 mg/kg. The inhibition in vivo at 100 mg/kg [20] was 38% and the Activity [21] was “Non-Toxic”.
With `Cc1nc(Nc2ncc(C(=O)Nc3ncccc3C)s2)cc(N2CCN(CCO)CC2)n1` the CLint [22] was 38 µL/min/mg.
For `Cc1nc(Nc2ncc(C(=O)Nc3c(C)cccc3Cl)s2)cc(N2CCN(CCO)CC2)n1.O` [DASATINIB], the inhibition at 10 µM [23] was 36%, the “Drug uptake(free)” value [1] was 30 nM and the Activity [24] was “Active”. The Activity [21] was “Non-Toxic”.
